In the supplement of paper PMC10307832 one finds relative viability data, which are given here for seven cell lines.

Holding throughout (assay): relative viability (nuclei count vs DMSO), 5 days (fraction); higher = more cells survive
Compound in assay [1]: C1CNCCC1C2=CC(=NN2)C3=CC=NC=C3
Summed up:
(§1)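 A plate was accepted only when its control CV was below 25% and the cells had doubled at least once. Viability is defined from nuclear counts as treated wells divided by vehicle wells, with the median taken across plates. That median covers lung cancer cell lines grown in 1536-well plates, dosed by pinning at five √10-spaced library-drug concentrations, and counted in MetaXpress from 4× Hoechst images after 5 days.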

Compound in assay [2]: C[C@@H](N)c1ccc(C(=O)Nc2ccnc3[nH]ccc23)cc1
A digest of the protocol:
as §1

Compound in a further assay: O[C@H]1CC[C@H](Nc2ncc3nc(Nc4c(F)cc(F)cc4F)n([C@H]4CCOC4)c3n2)CC1 [Tanzisertib]
A digest of the protocol:
as §1

Compound in assay [3]: C[C@@H](N)c1ccc(C(=O)Nc2ccnc3[nH]ccc23)cc1 + Cc1nc(Nc2ncc(C(=O)Nc3c(C)cccc3Cl)s2)cc(N2CCN(CCO)CC2)n1 [Dasatinib] (partner 0.075 µM)
A digest of the protocol: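 Lung cancer cell lines were pin-tool dosed in 1536-well plates on the day after seeding, with either a lone drug or a fixed anchor-drug dose plus five library-drug doses (not always all listed) in √10 steps. Nuclei were counted on 4× images after 5 days. Relative viability is the ratio of treated-well to vehicle-well nuclei counts, with each value a median of duplicate plates.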

Consider PC-3 [JPC-3], for which the relative viability in assay [1] (0.08 µM) came out at 1.02; in assay [1] (0.8 µM) it was 1; in assay [1] (2.53 µM), 1.08; in assay [1] (8 µM) it was 1.03; in assay [2] (0.04 µM) it was 0.986; in assay [2] (0.1265 µM), 1.04. The relative viability in assay [2] (0.4 µM) came out at 0.997; in assay [2] (1.265 µM) it was 0.949; in assay [2] (4 µM), 0.884; in the assay with Tanzisertib (0.08 µM), 1.02; with Tanzisertib (0.253 µM) it was 1.06; with Tanzisertib (0.8 µM), 1.11. For the same cell line, the relative viability with Tanzisertib (2.53 µM) amounted to 0.983; with Tanzisertib (8 µM), 0.871; in assay [3] (first compound 0.04 µM), 0.951; in assay [3] (first compound 0.1265 µM), 1; in assay [3] (first compound 0.4 µM), 1.02; in assay [3] (first compound 1.265 µM) it was 0.901. Moreover, in assay [3] (first compound 4 µM), the relative viability was 0.82.

In the case of PC-14, the relative viability in assay [1] (0.08 µM) is 1.01; in assay [1] (0.8 µM) it was 1.06; in assay [1] (2.53 µM) it was 1.13; in assay [1] (8 µM), 0.987; in assay [2] (0.04 µM), 0.906; in assay [2] (0.1265 µM), 0.979. In addition, the relative viability in assay [2] (0.4 µM) was 0.995; in assay [2] (1.265 µM), 0.707; in assay [2] (4 µM) it was 0.779; in the assay with Tanzisertib (0.08 µM), 1.06; with Tanzisertib (0.253 µM) it was 1.07; with Tanzisertib (0.8 µM) it was 0.996. In addition, the relative viability with Tanzisertib (2.53 µM) stood at 0.984; with Tanzisertib (8 µM) it was 0.546; in assay [3] (first compound 0.04 µM), 0.216; in assay [3] (first compound 0.1265 µM), 0.29; in assay [3] (first compound 0.4 µM), 0.246; in assay [3] (first compound 1.265 µM), 0.206. For the same cell line, the relative viability in assay [3] (first compound 4 µM) amounted to 0.131.

As for RERF-LC-KJ, the relative viability amounted to 0.868 in assay [1] (0.08 µM); 1.01 in assay [1] (0.8 µM); 1.03 in assay [1] (2.53 µM); 0.943 in assay [1] (8 µM); 1.02 in assay [2] (0.04 µM); 1.01 in assay [2] (0.1265 µM). In addition, the relative viability in assay [2] (0.4 µM) was determined as 1.16; in assay [2] (1.265 µM), 1.08; in assay [2] (4 µM) it was 1.02; with Tanzisertib (0.08 µM), 1.13; with Tanzisertib (0.253 µM), 1; with Tanzisertib (0.8 µM), 1.01. Further, the relative viability with Tanzisertib (2.53 µM) is 0.972; with Tanzisertib (8 µM), 0.87; in assay [3] (first compound 0.04 µM), 0.871; in assay [3] (first compound 0.1265 µM), 0.911; in assay [3] (first compound 0.4 µM), 0.88; in assay [3] (first compound 1.265 µM), 0.778. Besides, the relative viability in assay [3] (first compound 4 µM) is 0.709.

For the cell line SK-LU-1, the relative viability in assay [1] (0.08 µM) worked out at 1.04; in assay [1] (0.8 µM), 0.972; in assay [1] (2.53 µM), 1.2; in assay [1] (8 µM) it was 1.02; in assay [2] (0.04 µM), 0.986; in assay [2] (0.1265 µM), 1.04. Further, the relative viability was 1 in assay [2] (0.4 µM); 0.886 in assay [2] (1.265 µM); 0.833 in assay [2] (4 µM); 1.19 with Tanzisertib (0.08 µM); 1.05 with Tanzisertib (0.253 µM); 1.02 with Tanzisertib (0.8 µM). Moreover, the relative viability stood at 1.1 with Tanzisertib (2.53 µM); 1.01 with Tanzisertib (8 µM); 0.132 in assay [3] (first compound 0.04 µM); 0.138 in assay [3] (first compound 0.1265 µM); 0.136 in assay [3] (first compound 0.4 µM); 0.109 in assay [3] (first compound 1.265 µM). Moreover, the relative viability in assay [3] (first compound 4 µM) came to 0.121.

As for SK-MES-1, the relative viability was 1.03 in assay [1] (0.08 µM); 0.925 in assay [1] (0.8 µM); 1.05 in assay [1] (2.53 µM); 0.999 in assay [1] (8 µM); 0.987 in assay [2] (0.04 µM); 0.969 in assay [2] (0.1265 µM). Also, the relative viability in assay [2] (0.4 µM) is 1; in assay [2] (1.265 µM), 0.878; in assay [2] (4 µM), 0.82; with Tanzisertib (0.08 µM), 1.08; with Tanzisertib (0.253 µM) it was 0.984; with Tanzisertib (0.8 µM), 0.975. Further, the relative viability was determined as 0.992 in the assay with Tanzisertib (2.53 µM); 0.808 with Tanzisertib (8 µM); 0.398 in assay [3] (first compound 0.04 µM); 0.398 in assay [3] (first compound 0.1265 µM); 0.358 in assay [3] (first compound 0.4 µM); 0.279 in assay [3] (first compound 1.265 µM). Moreover, the relative viability in assay [3] (first compound 4 µM) was 0.334.

For the cell line SW 900, the relative viability in assay [1] (0.08 µM) turned out to be 0.843; in assay [1] (0.8 µM), 0.67; in assay [1] (2.53 µM), 0.88; in assay [1] (8 µM), 0.995; in assay [2] (0.04 µM), 0.92; in assay [2] (0.1265 µM), 0.965. Besides, the relative viability in assay [2] (0.4 µM) worked out at 0.887; in assay [2] (1.265 µM), 1.24; in assay [2] (4 µM), 0.986; with Tanzisertib (0.08 µM), 0.811; in the assay with Tanzisertib (0.253 µM) it was 0.87; with Tanzisertib (0.8 µM), 0.936. Also, the relative viability in the assay with Tanzisertib (2.53 µM) was determined as 1.18; with Tanzisertib (8 µM) it was 0.691; in assay [3] (first compound 0.04 µM) it was 0.722; in assay [3] (first compound 0.1265 µM), 0.549; in assay [3] (first compound 0.4 µM), 0.606; in assay [3] (first compound 1.265 µM), 0.44. Further, the relative viability in assay [3] (first compound 4 µM) is 0.488.

In the case of SW 1573, the relative viability in assay [1] (0.08 µM) was 0.709; in assay [1] (0.8 µM), 1.06; in assay [1] (2.53 µM), 1.15; in assay [1] (8 µM), 1.09; in assay [2] (0.04 µM), 1.13; in assay [2] (0.1265 µM), 1.04. In addition, the relative viability turned out to be 1.08 in assay [2] (0.4 µM); 0.966 in assay [2] (1.265 µM); 0.803 in assay [2] (4 µM); 1.14 in the assay with Tanzisertib (0.08 µM); 0.938 with Tanzisertib (0.253 µM); 1 with Tanzisertib (0.8 µM). Besides, the relative viability with Tanzisertib (2.53 µM) turned out to be 1.01; in the assay with Tanzisertib (8 µM), 0.909; in assay [3] (first compound 0.04 µM), 0.405; in assay [3] (first compound 0.1265 µM) it was 0.592; in assay [3] (first compound 0.4 µM), 0.433; in assay [3] (first compound 1.265 µM), 0.259. In assay [3] (first compound 4 µM), the relative viability amounted to 0.231.
